# From patent US20200246323A1, “Antibody Drug Conjugates with Cell Permeable BCL-XL Inhibitors” (AbbVie Inc., priority 2014, published 2020)
# Like-named read-outs stand apart in the source and are kept apart here. Marks after values point to notes of the source that are not given here.
# Key:
# [1] = test system: EBC-1 xenografts; assay: Inhibition of EBC-1 xenograft tumor growth; format: in vivo, mouse; conditions: Table 13, 7.5 mg/kg/day IV QDx1
# [2] = test system: NCI-H1650 xenografts; assay: Inhibition of H1650 xenograft tumor growth; format: in vivo, mouse; conditions: Table 9
# [3] = target: GST-Bcl-xL (Homo sapiens, UniProt Q07817); assay: TR-FRET Bcl-xL binding assay (competition with probe F-Bak)
# Chain of GST-Bcl-xL (Q07817 whole entry): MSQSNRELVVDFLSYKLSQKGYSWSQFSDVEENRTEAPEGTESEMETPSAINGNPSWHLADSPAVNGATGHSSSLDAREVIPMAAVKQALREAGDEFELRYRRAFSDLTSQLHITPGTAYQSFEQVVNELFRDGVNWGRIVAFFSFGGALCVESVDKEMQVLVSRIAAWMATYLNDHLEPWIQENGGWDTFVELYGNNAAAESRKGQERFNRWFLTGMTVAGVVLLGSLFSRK
# Experimental: Tb-anti-GST antibody was purchased from Invitrogen (Catalog No. PV4216).
# For the assay, test compounds were serially diluted in DMSO starting at 50 μM (2× starting concentration; 10% DMSO) and 10 μL transferred into a 384-well plate. 10 μL of a protein/probe/antibody mix was then added to each well at final concentrations listed below:
# The samples were then mixed on a shaker for 1 minute and incubated for an additional 2 hours at room temperature. For each assay plate, a probe/antibody and protein/antibody/probe mixture were included as a negative and a positive control, respectively. Fluorescence was measured on the Envision (Perkin Elmer) using a 340/35 nm excitation filter and 520/525 (F-Bak) and 495/510 nm (Tb-labeled anti-his antibody) emission filters. Dissociation constants (Ki) were determined using Wang's equation (Wang, 1995, FEBS Lett. 360:111-114). The TR-FRET assay can be performed in the presence of varying concentrations of human serum (HS) or fetal bovine serum (FBS). Compounds were tested both without HS and in the presence of 1% HS.
# [4] = test system: Molt-4 human acute lymphoblastic leukemia cells; assay: Molt-4 cell viability assay (CellTiter-Glo, 48 hours); format: cell-based; conditions: 10% human serum, read-out: Molt-4 Viability EC50 (nM, 10% HS)
# Text: The ability of exemplary Bcl-xL inhibitors can be determined in cell-based killing assays using a variety of cell lines and mouse tumor models. For example, their activity on cell viability can be assessed on a panel of cultured tumorigenic and non-tumorigenic cell lines, as well as primary mouse or human cell populations. Bcl-xL inhibitory activity of exemplary Bcl-xL inhibitors was confirmed in a cell viability assay with Molt-4 cells.
# In one exemplary set of conditions, Molt-4 (ATCC, Manassas, Va.) human acute lymphoblastic leukemia cells were plated 12,500 cells per well in 384-well tissue culture plates (Corning, Corning, N.Y.) in a total volume of 25 μL tissue culture medium supplemented with 10% human serum (Sigma-Aldrich, St. Louis, Mo.) and treated with a 3-fold serial dilution of the compounds of interest from 10 μM to 0.0005 μM. Each concentration was tested in duplicate at least 3 separate times. The number of viable cells following 48 hours of compound treatment was determined using the CellTiter-Glo Luminescent Cell Viability Assay according to the manufacturer's recommendations (Promega Corp., Madison, Wis.). Compounds were tested in the presence of 10% HS.
# [5] = test system: circulating platelets; assay: Number of circulating platelets in mice after a single dose; conditions: for Lowest thrombocyte count / Time to lowest count: SCID/bg mice
# [6] = test system: NCI-H1963.FP5 xenografts; assay: Inhibition of H1963.FP5 xenograft tumor growth; format: in vivo, mouse; conditions: Table 15; 50 mg/kg/day PO QDx21
# [7] = test system: NCI-H146 xenografts; assay: Inhibition of H146 xenograft tumor growth; format: in vivo, mouse; conditions: Table 14; 50 mg/kg/day PO QDx21
# [8] = test system: circulating platelets; conditions: SCID/bg, mouse, in vivo, po, 100 mg/kg
# [9] = in the presence of 1% human serum, read-out: Bcl-xL Binding Ki (nM, 1% HS)
# [10] = without HS, read-out: Bcl-xL Binding Ki
# [11] = single dose 0.61 mg/kg, intravenous
# [12] = 25 mg/kg/day PO QDx14, 25 mg/kg/day
compound,measurement,setting,value
"CC(=O)O[C@@]12CO[C@@H]1C[C@H](O)[C@@]1(C)C(=O)[C@H](O)C3=C(C)[C@@H](OC(=O)[C@H](O)[C@@H](NC(=O)OC(C)(C)C)c4ccccc4)C[C@@](O)([C@@H](OC(=O)c4ccccc4)[C@H]21)C3(C)C [DTX, docetaxel]",Response Frequency CR (%),[1],0%
same,Response Frequency OR (%),[1],0%
same,Response Frequency PR (%),[1],0%
same,Growth Inhibition TGD (%),[1]; 7.5 mg/kg/day,44%
same,Growth Inhibition TGImax (%),[1]; 7.5 mg/kg/day,76%
same,Growth Inhibition TGD (%),[2]; 7.5 mg/kg/day IV QDx1,94* %
same,Growth Inhibition TGImax (%),[2]; 7.5 mg/kg/day IV QDx1,73* %
same,Response Frequency CR (%),[2]; 7.5 mg/kg/day IV QDx1,0%
same,Response Frequency OR (%),[2]; 7.5 mg/kg/day IV QDx1,0%
same,Response Frequency PR (%),[2]; 7.5 mg/kg/day IV QDx1,0%
"Cc1c(-c2ccc(N3CCc4cccc(C(=O)Nc5nc6ccccc6s5)c4C3)nc2C(=O)O)cnn1CC12CC3(C)CC(C)(C1)CC(OCCOCCN)(C3)C2 [Example 1.4, 3-[1-({3-[2-(2-aminoethoxy)ethoxy]-5,7-dimethyltricyclo[3.3.1.1^3,7]dec-1-yl}methyl)-5-methyl-1H-pyrazol-4-yl]-6-[8-(1,3-benzothiazol-2-ylcarbamoyl)-3,4-dihydroisoquinolin-2(1H)yl]pyridine-2-carboxylic acid]",Ki,[3]; [9],0.24 nM
same,Ki,[3]; [10],0.01 nM
same,EC50,[4],12.1 nM
"Cc1c(-c2ccc(N3CCc4cc(F)cc(C(=O)Nc5nc6ccccc6s5)c4C3)nc2C(=O)O)cnn1CC12CC3(C)CC(C)(C1)CC(OCCN)(C3)C2 [Example 1.7, 3-(1-{[3-(2-aminoethoxy)-5,7-dimethyltricyclo[3.3.1.1^3,7]dec-1-yl]methyl}-5-methyl-1H-pyrazol-4-yl)-6-[8-(1,3-benzothiazol-2-ylcarbamoyl)-6-fluoro-3,4-dihydroisoquinolin-2(1H)-yl]pyridine-2-carboxylic acid]",Ki,[3]; [9],0.094 nM
same,Ki,[3]; [10],0.011 nM
same,EC50,[4],4 nM
"Cc1c(-c2ccc(N3CCc4cccc(C(=O)Nc5nc6ccccc6s5)c4C3)nc2C(=O)O)cnn1CC12CC3(C)CC(C)(C1)CC(OCCN)(C3)C2 [Example 1.3, 3-(1-{[3-(2-aminoethoxy)-5,7-dimethyltricyclo[3.3.1.1^3,7]dec-1-yl]methyl}-5-methyl-1H-pyrazol-4-yl)-6-[8-(1,3-benzothiazol-2-ylcarbamoyl)-3,4-dihydroisoquinolin-2(1H)yl]pyridine-2-carboxylic acid]",Ki,[3]; [9],0.097 nM
same,Ki,[3]; [10],< 0.001 nM
same,EC50,[4],6.6 nM
CNCCOC12CC3(C)CC(C)(CC(Cn4ncc(-c5ccc(N6CCc7cccc(C(=O)Nc8nc9ccccc9s8)c7C6)nc5C(=O)O)c4C)(C3)C1)C2 [Example 1.1],Decrease of the platelet number from normal count,[5]; dose of 0.61 mg/kg,100 fold
same,Lowest thrombocyte count,[5]; [11],6 1/10^3 of the platelet#/mm^3
same,Time to lowest count,[5]; [11],6 h
same,Ki,[3]; [9],0.39 nM
same,Ki,[3]; [10],0.0029 nM
same,EC50,[4],7.8 nM
CC1(C)CCC(CN2CCN(c3ccc(C(=O)NS(=O)(=O)c4ccc(NCC5CCOCC5)c([N+](=O)[O-])c4)c(Oc4cnc5[nH]ccc5c4)c3)CC2)=C(c2ccc(Cl)cc2)C1 [ABT-199],Growth Inhibition TGD (%),[6],22* %
same,Growth Inhibition TGImax (%),[6],50* %
same,Response Frequency CR (%),[6],0%
same,Response Frequency OR (%),[6],0%
same,Response Frequency PR (%),[6],0%
same,Growth Inhibition TGD (%),[7],48* %
same,Growth Inhibition TGImax (%),[7],75* %
same,Response Frequency CR (%),[7],0%
same,Response Frequency OR (%),[7],0%
same,Response Frequency PR (%),[7],0%
"Cc1c(-c2ccc(N3CCc4c(F)ccc(C(=O)Nc5nc6ccccc6s5)c4C3)nc2C(=O)O)cnn1CC12CC3(C)CC(C)(C1)CC(OCCN)(C3)C2 [Example 1.6, 3-(1-{[3-(2-aminoethoxy)-5,7-dimethyltricyclo[3.3.1.1^3,7]dec-1-yl]methyl}-5-methyl-1H-pyrazol-4-yl)-6-[8-(1,3-benzothiazol-2-ylcarbamoyl)-5-fluoro-3,4-dihydroisoquinolin-2(1H)-yl]pyridine-2-carboxylic acid]",Ki,[3]; [9],0.62 nM
same,Ki,[3]; [10],0.019 nM
same,EC50,[4],47 nM
"Cc1c(-c2ccc(N3CCc4ccc(F)c(C(=O)Nc5nc6ccccc6s5)c4C3)nc2C(=O)O)cnn1CC12CC3(C)CC(C)(C1)CC(OCCN)(C3)C2 [Example 1.8, 3-(1-{[3-(2-aminoethoxy)-5,7-dimethyltricyclo[3.3.1.1^3′ ]dec-1-yl]methyl}-5-methyl-1H-pyrazol-4-yl)-6-[8-(1,3-benzothiazol-2-ylcarbamoyl)-7-fluoro-3,4-dihydroisoquinolin-2(1H)-yl]pyridine-2-carboxylic acid]",Ki,[3]; [9],17 nM
same,Ki,[3]; [10],0.1 nM
Cc1c(-c2ccc(N3CCc4cccc(C(=O)Nc5nc6ccccc6s5)c4C3)nc2C(=O)O)cnn1CC12CC3CC(CC(C3)C1)C2 [Example A-1331852],Lowest thrombocyte count,"[5]; single dose 25 mg/kg, oral",9 1/10^3 of the platelet#/mm^3
same,Time to lowest count,"[5]; single dose 25 mg/kg, oral",6 h
same,Response Frequency CR (%),[2]; 25 mg/kg/day PO QDx14,0%
same,Response Frequency OR (%),[2]; 25 mg/kg/day PO QDx14,0%
same,Response Frequency PR (%),[2]; 25 mg/kg/day PO QDx14,0%
same,Growth Inhibition TGD (%),[2]; [12],78%
same,Growth Inhibition TGImax (%),[2]; [12],57%
"COCCNCCOC12CC3(C)CC(C)(CC(Cn4ncc(-c5ccc(N6CCc7cccc(C(=O)Nc8nc9ccccc9s8)c7C6)nc5C(=O)O)c4C)(C3)C1)C2 [Example 1.5, 6-[8-(1,3-benzothiazol-2-ylcarbamoyl)-3,4-dihydroisoquinolin-2(1H)-yl]-3-(1-[(3-{2-[(2-methoxyethyl)amino]ethoxy}-5,7-dimethyltricyclo[3.3.1.1^3,7]dec-1-yl)methyl]-5-methyl-1H-pyrazol-4-yl)pyridine-2-carboxylic acid]",Ki,[3]; [9],0.078 nM
same,Ki,[3]; [10],< 0.001 nM
same,EC50,[4],1.85 nM
"CC1(C)CCC(c2ccc(Cl)cc2)=C(CN2CCN(c3ccc(C(=O)NS(=O)(=O)c4ccc(N[C@H](CCN5CCOCC5)CSc5ccccc5)c(S(=O)(=O)C(F)(F)F)c4)cc3)CC2)C1 [ABT-263, Navitoclax]",Time to lowest count,[8],6 h
same,Lowest thrombocyte count,[8]; 6 h,10 1/10^3 of the platelet#/mm^3
"CNCCOCCOCCOC12CC3(C)CC(C)(CC(Cn4ncc(-c5ccc(N6CCc7cccc(C(=O)Nc8nc9ccccc9s8)c7C6)nc5C(=O)O)c4C)(C3)C1)C2 [Example 1.2, 6-[8-(1,3-benzothiazol-2-ylcarbamoyl)-3,4-dihydroisoquinolin-2(1H)-yl]-3-(1-({[(1r,3R,5S,7s)-3,5-dimethyl-7-(2-(2-[2-(methylamino)ethoxy]ethoxy}ethoxy)tricyclo[3.3.1.1^3,7]dec-1-yl]methyl)-5-methyl-1H-pyrazol-4-yl)pyridine-2-carboxylic acid]",Ki,[3]; [9],0.51 nM
same,Ki,[3]; [10],0.04 nM
same,EC50,[4],5.4 nM
